Laboratory results: USRE50082E1, “(5,6-dihydro)pyrimido[4,5-e]indolizines” (NETHERLANDS TRANSLATIONAL RESEARCH CENTER B.V., priority 2014, dated 2024)
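Further: luminescence read-out, percent growth versus compound-free DMSO wells as maximum growth, start-of-incubation signal separating growth from cell death, IC50 from logistic curve fit.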

Each compound was assayed on MOLT-4 cancer cell line (assay: Cell proliferation assay, MOLT-4 cancer cell line (ATPlite)). Settings: Homo sapiens, MOLT-4; 72 hours incubation, ATPlite 1Step; read-out: IC50 MOLT-4 cell proliferation.
Assay type: cell-based
Description: 5 μL of compound solution was added and the plates were incubated for an additional 72 hours after which 25 μL of ATPlite 1Step™ (PerkinElmer, Groningen, The Netherlands) solution was added to each well. Luminescence was recorded on an Envision multimode reader. The cell signal at the start of incubation was recorded separately in order to distinguish between cell population growth and cell death. In addition, maximum growth was determined by incubation of a duplicate without compound in the presence of 0.4% DMSO. Percentage growth was used as the main y-axis signal. IC50s were fitted by non-linear regression using IDBS XLfit™5 using a 4-parameter logistic curve, yielding a maximum signal, minimum signal, hill-parameter and IC50.
`COc1cc(OC2CCN(C)CC2)ccc1Nc1ncc2c(n1)-n1ccc(C(=O)Nc3c(C)cccc3Br)c1CC2` [Example 42, N-(2-bromo-6-methyl-phenyl)-2-[2-methoxy-4-[(1-methyl-4-piperidyl)oxy]anilino]-5,6-dihydropyrimido[4,5-e]indolizine-7-carboxamide] showed an IC50 of under 50 nM. For `COc1cc(N2CCN(C(=O)C3CC3)CC2)ccc1Nc1ncc2c(n1)-n1ccc(C(=O)Nc3c(C)cccc3C)c1CC2` [Example 112, 2-[4-[4-(Cyclopropanecarbonyl)piperazin-1-yl]-2-methoxy-anilino]-N-(2,6-dimethylphenyl)-5,6-dihydropyrimido[4,5-e]indolizine-7-carboxamide], the IC50 was under 50 nM. With `Cc1cc(N2CCNCC2)ccc1Nc1ncc2c(n1)-n1ccc(C(=O)Nc3c(C)cccc3C)c1CC2` [Example 58, N-(2,6-dimethylphenyl)-2-(2-methyl-4-piperazin-1-yl-anilino)-5,6-dihydropyrimido[4,5-e]indolizine-7-carboxamide] the IC50 was under 50 nM. In the case of `CCc1ccccc1NC(=O)c1ccn2c1CCc1cnc(Nc3ccc(N4CCN(C)CC4)cc3OC)nc1-2` [Example 29, N-(2-ethylphenyl)-2-[2-methoxy-4-(4-methylpiperazin-1-yl)anilino]-5,6-dihydropyrimido[4,5-e]indolizine-7-carboxamide], the IC50 is reported as 50 to 150 nM. In the case of `COc1cc(N2CCN(C)CC2)ccc1Nc1ncc2c(n1)-n1ccc(C(=O)Nc3c(C)n[nH]c3C)c1CC2` [Example 27, N-(3,5-dimethyl-1H-pyrazol-4-yl)-2-[2-methoxy-4-(4-methylpiperazin-1-yl)anilino]-5,6-dihydropyrimido[4,5-e]indolizine-7-carboxamide], the IC50 is reported as 50 to 150 nM. In the case of `CCc1cccc(CC)c1NC(=O)c1ccn2c1CCc1cnc(Nc3cnc(N4CCN(C)CC4)nc3OC)nc1-2` [Example 107, N-(2,6-diethylphenyl)-2-[[4-methoxy-2-(4-methylpiperazin-1-yl)pyrimidin-5-yl]amino]-5,6-dihydropyrimido[4,5-e]indolizine-7-carboxamide], the IC50 is reported as under 50 nM. `COc1cc(N2CCN(C(=O)NC(C)C)CC2)ccc1Nc1ncc2c(n1)-n1ccc(C(=O)Nc3c(C)cccc3C)c1CC2` [Example 145, N-(2,6-dimethylphenyl)-2-[4-[4-(isopropylcarbamoyl)piperazin-1-yl]-2-methoxy-anilino]-5,6-dihydropyrimido[4,5-e]indolizine-7-carboxamide] gave an IC50 of under 50 nM. `CCc1cccc(CC)c1NC(=O)c1ccn2c1CCc1cnc(Nc3ccc(N(C)CCCN(C)C)cc3OC)nc1-2` [Example 134, N-(2,6-diethylphenyl)-2-[4-[3-(dimethylamino)propyl-methyl-amino]-2-methoxy-anilino]-5,6-dihydropyrimido[4,5-e]indolizine-7-carboxamide] showed an IC50 of under 50 nM. `Cc1cccc(Cl)c1NC(=O)c1ccn2c1CCc1cnc(Nc3ccc(N4CCOCC4)nc3C)nc1-2` [Example 5, N-(2-chloro-6-methyl-phenyl)-2-[(2-methyl-6-morpholino-3-pyridyl)amino]-5,6-dihydropyrimido[4,5-e]indolizine-7-carboxamide] gave an IC50 of under 50 nM. Work on `CCc1nn(CCOC)c(CC)c1NC(=O)c1ccn2c1CCc1cnc(Nc3ccc(OC4CNC4)cc3OC)nc1-2` [Example 93, 2-[4-(Azetidin-3-yloxy)-2-methoxy-anilino]-N-[3,5-diethyl-1-(2-methoxyethyl)pyrazol-4-yl]-5,6-dihydropyrimido[4,5-e]indolizine-7-carboxamide] yielded an IC50 of under 50 nM. Compound `CCc1cccc(C)c1NC(=O)c1ccn2c1CCc1cnc(Nc3ccc(N4CCN(C)CC4)cc3)nc1-2` [Example 4, N-(2-ethyl-6-methyl-phenyl)-2-[4-(4-methylpiperazin-1-yl)anilino]-5,6-dihydropyrimido[4,5-e]indolizine-7-carboxamide] has an IC50 of under 50 nM. `COCCn1nc(C)c(NC(=O)c2ccn3c2CCc2cnc(Nc4ccc(N5CCN(C(=O)C6CC(F)C6)CC5)cc4OC)nc2-3)c1C` (stereo not drawn) [Example 132, 2-[4-[4-(3-Fluorocyclobutanecarbonyl)piperazin-1-yl]-2-methoxy-anilino]-N-[1-(2-methoxyethyl)-3,5-dimethyl-pyrazol-4-yl]-5,6-dihydropyrimido[4,5-e]indolizine-7-carboxamide] was tested, and the IC50 was 50 to 150 nM. For `CCc1cccc(CC)c1NC(=O)c1ccn2c1CCc1cnc(Nc3ccc(N4CCOCC4)cc3C)nc1-2` [Example 83, N-(2,6-diethylphenyl)-2-(2-methyl-4-morpholino-anilino)-5,6-dihydropyrimido[4,5-e]indolizine-7-carboxamide], the IC50 was under 50 nM. Work on `Cc1cccc(Br)c1NC(=O)c1ccn2c1CCc1cnc(Nc3ccc(N4CCOCC4)nc3C)nc1-2` [Example 70, N-(2-bromo-6-methyl-phenyl)-2-[(2-methyl-6-morpholino-3-pyridyl)amino]-5,6-dihydropyrimido[4,5-e]indolizine-7-carboxamide] yielded an IC50 of under 50 nM. In the case of `COc1cc(OC2CCN(C)CC2)ccc1Nc1ncc2ccc3c(C(=O)Nc4c(C)cccc4C)ccn3c2n1` [Example 62, N-(2,6-dimethylphenyl)-2-[2-methoxy-4-[(1-methyl-4-piperidyl)oxy]anilino]pyrimido[4,5-e]indolizine-7-carboxamide], the IC50 is reported as under 50 nM. For `CCc1cccc(C)c1NC(=O)c1ccn2c1CCc1cnc(Nc3ccc(N4CCN(C)CC4)cc3C)nc1-2` [Example 64, N-(2-ethyl-6-methyl-phenyl)-2-[2-methyl-4-(4-methylpiperazin-1-yl)anilino]-5,6-dihydropyrimido[4,5-e]indolizine-7-carboxamide], the IC50 was under 50 nM. In the case of `Cc1cc(N2CCN(C)CC2)ccc1Nc1ncc2c(n1)-n1ccc(C(=O)Nc3c(C)cccc3Cl)c1CC2` [Example 2, N-(2-chloro-6-methyl-phenyl)-2-[2-methyl-4-(4-methylpiperazin-1-yl)anilino]-5,6-dihydropyrimido[4,5-e]indolizine-7-carboxamide], the IC50 is reported as under 50 nM. In the case of `CCc1nn(CCOC)c(CC)c1NC(=O)c1ccn2c1CCc1cnc(Nc3ccc(OC4CCN(C)CC4)cc3C)nc1-2` [Example 13, N-[3,5-diethyl-1-(2-methoxyethyl)pyrazol-4-yl]-2-[2-methyl-4-[(1-methyl-4-piperidyl)oxy]anilino]-5,6-dihydropyrimido[4,5-e]indolizine-7-carboxamide], the IC50 is reported as under 50 nM. `COc1cc(N2CCN(C)CC2)ccc1Nc1ncc2c(n1)-n1ccc(C(=O)Nc3c(C)cccc3C#N)c1CC2` [Example 133, N-(2-cyano-6-methyl-phenyl)-2-[2-methoxy-4-(4-methylpiperazin-1-yl)anilino]-5,6-dihydropyrimido[4,5-e]indolizine-7-carboxamide] showed an IC50 of under 50 nM. For `COc1cc(C(=O)N2CCC(C)(C#N)CC2)ccc1Nc1ncc2c(n1)-n1ccc(C(=O)Nc3c(C)cccc3C)c1CC2` [Example 129, 2-[4-(4-Cyano-4-methyl-piperidine-1-carbonyl)-2-methoxy-anilino]-N-(2,6-dimethylphenyl)-5,6-dihydropyrimido[4,5-e]indolizine-7-carboxamide], the IC50 was under 50 nM. With `CCc1nn(C2COC2)c(CC)c1NC(=O)c1ccn2c1CCc1cnc(Nc3ccc(N4CCN(C)CC4)cc3OC)nc1-2` [Example 142, N-[3,5-diethyl-1-(oxetan-3-yl)pyrazol-4-yl]-2-[2-methoxy-4-(4-methylpiperazin-1-yl)anilino]-5,6-dihydropyrimido[4,5-e]indolizine-7-carboxamide] the IC50 was 50 to 150 nM.
